Reference: patent US9701644B2, “Salt of nitrogen-containing heterocyclic compound or crystal thereof, pharmaceutical composition, and FLT3 inhibitor” (FUJIFILM Corporation, priority 2013, dated 2017)
Values after ≈ are worked out from the molar mass of the structure shown. Structures can show the parent of a compound that is named as a salt.

Legend:
MV4-11 cells = test: Leukemic cell growth inhibition test (MV4-11); type: cell-based; settings: MV4-11, 72 hours culture, CellTiter-Glo
Procedure: (§1) A leukemic cell growth inhibition test was performed by using the leukemic cell strains MV4-11 (ATCC Number, CRL-9591) and MOLM-13 (DSMZ Number, ACC554).
(§2) The leukemic cell growth inhibition test was performed by the method described below.
(§3) For the purpose of measuring growth inhibition with a test compound, the total cell count was quantified on the basis of the total cellular ATP concentration using the CellTitet-Glo (PerkinElmer) reagent that enables quantification of ATP concentration based on the luciferin-luciferase reaction. The MOLM-13 or MV4-11 cells were added to the RPMI medium containing penicillin (100 units/mL), streptomycin (100 μg/mL), and 10% FBS at a density of 2×10^5 cells/ml, and 50 μL (10,000 cells) of the mixture was inoculated to each well of a 96-well plate (Corning).
(§4) A serially diluted solution of a test compound or 0.1% DMSO (solvent control) in a volume of 50 μL was added to the cells, and then the cells were cultured for 72 hours under the standard cell proliferation conditions (37° C., 5% CO2) to allow proliferation of the cells. In order to measure the total cell proliferation, equal volume of the CellTitet-Glo reaction mixture was added to each well in accordance with the instructions attached to CellTitet-Glo, and luminescence count was quantified (relative light unit, RLU).
(§5) The RLU signal observed for the DMSO solvent control after 72 hours of culture was defined as a signal indicating 0% inhibition, and the GI50 value for the growth inhibition corresponds to a concentration of a compound that provides 50% inhibition of the total cell proliferation observed in the DMSO solvent control. Each data point was obtained from samples prepared in duplicate. The GI50 values were calculated by the non-linear regression fitting (Fit Model (205)) according to a sigmoid dose-reaction equation using the XLfit software.

[1] = Storage stability test (1), open glass bottle, 2 weeks; type: physicochemical; settings: for storage stability / Moisture content / Purity: open glass bottle; for storage stability / change of the purity and moisture content after storage: in words; for change of the purity and moisture content after storage: storage over 2 weeks
Procedure: (§6) The purities are represented in terms of area % measured by high performance liquid chromatography (HPLC). The HPLC measurement was performed by using Prominence (Shimadzu) under the following conditions.
Crystals of the compounds of Examples 1 and 3 were chosen as test substances.
Each test substance (200 mg) was put into a glass bottle of an open state, and stored for 2 weeks under the storage condition 1 (25° C., 75% relative humidity), or the storage condition 2 (40° C., 75% relative humidity). Purity and moisture content of the test substance were measured before the start of the test and after the end of the test.

[2] = Storage stability test (2), double plastic bag, 4 weeks; type: physicochemical
Procedure: as §6
The crystals of the compound of Example 1 were chosen as test substance.
The test substance (200 mg) was put into double plastic bag, and the opening was tied up. The bag was stored for 4 weeks under the storage condition 1 (25° C., 75% relative humidity), or the storage condition 2 (40° C., 75% relative humidity). Purity and moisture content of the test substance were measured before the start of the test and after the end of the test.

MOLM-13 cells = test: Leukemic cell growth inhibition test (MOLM-13); type: cell-based; settings: MOLM-13, 72 hours culture, CellTiter-Glo
Procedure: as §1, §2, §3, §4, §5

Solubility test in water = type: physicochemical; settings: room temperature, stirred 24 hours
Procedure: The compounds of Examples 1 and 3 were chosen as test compounds.
The compound A was chosen as a comparative compound.
The test compounds and the comparative compound were each added to water, and each mixture was stirred at room temperature for 24 hours. The insoluble matter was removed by filtration using a membrane filter (0.2 μm). The filtrate was analyzed by HPLC to obtain solubility.

[3] = storage condition 1 (25° C., 75% relative humidity), 2 weeks
[4] = storage condition 2 (40° C., 75% relative humidity), 2 weeks
[5] = storage condition 1 (25° C., 75% relative humidity), 4 weeks
[6] = storage condition 2 (40° C., 75% relative humidity), 4 weeks

GI50 (MV4-11 cells; Homo sapiens, MV4-11, 72 h) [nM] | storage stability ([1]; 2 weeks) | Moisture content ([1]; before start of test) [%] | Purity ([1]; before start of test) [%] | Moisture content [1, 3] [%] | Purity [1, 3] [%] | Moisture content [1, 4] [%] | Purity [1, 4] [%] | change of the purity and moisture content after storage [1] | Moisture content ([2]; before start of test) [%] | Purity ([2]; before start of test) [%] | Moisture content [2, 5] [%] | Purity [2, 5] [%] | Moisture content [2, 6] [%] | Purity [2, 6] [%] | GI50 (MOLM-13 cells; Homo sapiens, MOLM-13, 72 h) [nM] | Solubility (Solubility test in water) [µg/mL] | GI50 (MV4-11 cells) [nM] | GI50 (MOLM-13 cells) [nM] | Compound
0.52 | superior | 0.5 | 99.6 | 0.2 | 99.6 | 0.2 | 99.6 | little change | 0.2 | 99.4 | 0.2 | 99.4 | 0.2 | 99.4 | 1.47 | 70000 |  |  | CCCNc1nc(Nc2ccc(C#N)cc2)ncc1C#CCCCNC(=O)[C@H](C)N(C)C(=O)/C=C/CN(C)C [Example 1, succinate of the compound A]
 |  |  |  |  |  |  |  |  |  |  |  |  |  |  |  | 20 (≈ 37.7 µM) |  |  | CCCNc1nc(Nc2ccc(C#N)cc2)ncc1C#CCCCNC(=O)[C@H](C)N(C)C(=O)/C=C/CN(C)C [Compound A, (S,E)-N-(1-((5-(2-((4-cyanophenyl)amino)-4-(propylamino)pyrimidin-5-yl)pent-4-yn-1-yl)amino)-1-oxopropan-2-yl)-4-(dimethylamino)-N-methylbut-2-enamide]
 | superior |  |  |  |  |  |  | little change |  |  |  |  |  |  |  | 890 | 0.6 | 1.6 | CCCNc1nc(Nc2ccc(C#N)cc2)ncc1C#CCCCNC(=O)[C@H](C)N(C)C(=O)/C=C/CN(C)C [Example 3, fumarate of the compound A]
 |  | 1.7 | 99.7 | 3.2 | 99.6 | 2.1 | 99.6 |  |  |  |  |  |  |  |  |  | 0.6 | 1.5 | CCCNc1nc(Nc2ccc(C#N)cc2)ncc1C#CCCCNC(=O)[C@H](C)N(C)C(=O)/C=C/CN(C)C [Example 2, succinate of the compound A]
